These results are taken from patent US20070148110A1, “Aqueous-alcoholic depigmenting gels comprising mequinol and adapalene” (GALDERMA RESEARCH & DEVELOPMENT, priority 2004, published 2007).

This test relates to skin of the tail of the SKH2 mouse. Nature of the test: Depigmenting activity on the skin of the tail of the SKH2 mouse. Particulars: adapalene 0.1%; for depigmentation score: 4 weeks topical; for depigmenting effect: topical, after 4 weeks, mequinol 2%. On the set-up: key to depigmentation score: 0: natural pigmentation; −1: slight depigmentation; −2: moderate depigmentation; −3: marked depigmentation; −4: total depigmentation. It is filed as in vivo. Here is the method: The purpose of the present study is to evaluate the depigmenting activity of a composition comprising either (i) 2% of mequinol, (ii) 0.1% of adapalene or (iii) the combination of both of them (composition according to the invention) on the skin of the tail of the SKH2 mouse after 4 weeks of topical application.
The two formulations gel and gel-cream are also compared. The two formulations (20 μl) are applied topically on the tails of SKH2 mice separated into two groups (female mice about 9 weeks old) at the rate of one application per day for 5 days over a period of 4 weeks.
Evaluation is based on various clinical observations: once a week, the pigmentation is evaluated as a score on a scale from 0 to 4. The basis of scoring is as follows: • 0: natural pigmentation Depigmentation scale: scores −1 to −4 • −1: slight depigmentation • −2: moderate depigmentation • −3: marked depigmentation • −4: total depigmentation

Structures are written as SMILES.

With `COc1ccc(-c2ccc3cc(C(=O)O)ccc3c2)cc1C12CC3CC(CC(C3)C1)C2` [Adapalene, 6-[3-(1-adamantyl)-4-methoxyphenyl]-2-naphthoic acid], the depigmenting effect result was “does not have a depigmenting effect”. For the same compound, the depigmentation score (gel formulation) is recorded as 0. Besides, the depigmentation score (gel-cream formulation) is on record as 0.

As to `COc1ccc(O)cc1` [Mequinol, 4-hydroxyanisole], the depigmenting effect result was “significant depigmenting effect”.
